Values quoted from earlier work, collected in patent publication US11622956B1, “Compound and method for treating diseases and disorders” (priority 2019, dated 2023).

Key:
static ataxia = conditions: dogs, IV
[1] = oral
ataxia = conditions: high levels of hemp-derived CBD
joint pain = conditions: dogs

SMILES: CCCCCc1cc(O)c2c(c1)OC(C)(C)[C@@H]1CCC(C)=C[C@@H]21 [THC, tetrahydrocannabinol]
- dose producing static ataxia (static ataxia): > 0.5 mg/kg

SMILES: C=C(C)[C@@H]1CCC(C)=C[C@H]1c1c(O)cc(CCCCC)cc1O [CBD, Cannabidiol]
- fraction of orally administered CBD ultimately absorbed, at best [1]: 15-20%
- fraction of orally administered CBD ultimately absorbed, on average [1]: 5-10%
- dogs with ataxia (ataxia): 2 of the 10

SMILES: COc1cccc(C2(O)CCCCC2CN(C)C)c1 (centres unmarked) [tramadol, Tramadol]
- peak vertical force or vertical impulse versus placebo (joint pain): no improvement
